Columns and labels:
[1] = tested on: Raji (Burkitt's Lymphoma); assay: combination Emax (second highest fraction inhibited in the dose matrix, 72 h); higher = more inhibition; extreme values may be limits of the assay
Method in brief: (§1)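 Cell lines in DMEM/F12 or RPMI with 10% FBS were plated in 1536-well plates, held 24 hours at 37°C, 5% CO2, then given two-drug dose matrices for 72 hours (DMSO typically 0.2%). Viability was read by CellTiter-Glo 2.0 luminescence and scaled as inhibition from 0 (vehicle wells) to 1 (blank wells). Combination Emax is the second-highest inhibition in the matrix; Bliss excess is observed combination effect minus expected EA + EB − EA·EB, EA and EB being single-agent effects.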

[2] = tested on: T84 (Colorectal Carcinoma); assay: as above
Method in brief: as §1

[3] = tested on: DBTRG-05MG (Glioblastoma); assay: as above
Method in brief: as §1

[4] = tested on: SiHa (Cervical Carcinoma); assay: as above
Method in brief: as §1

[5] = tested on: SAT (Head and Neck Carcinoma); assay: as above
Method in brief: as §1

[6] = tested on: CL-11 (Colorectal Carcinoma); assay: as above
Method in brief: as §1

[7] = tested on: OVCAR-3 (Ovarian Carcinoma); assay: as above
Method in brief: as §1

[8] = tested on: SNU-C2B (Colorectal Carcinoma); assay: as above
Method in brief: as §1

[9] = tested on: MM1S (Plasma Cell Myeloma); assay: as above
Method in brief: as §1

[10] = tested on: NCI-H1876 (Small Cell Lung Carcinoma); assay: as above
Method in brief: as §1

[11] = tested on: CPC-N (Small Cell Lung Carcinoma); assay: as above
Method in brief: as §1

[12] = tested on: C-33-A (Cervical Carcinoma); assay: as above
Method in brief: as §1

[13] = tested on: LS-1034 (Colorectal Carcinoma); assay: as above
Method in brief: as §1

[14] = tested on: NCI-H1341 (Small Cell Lung Carcinoma); assay: as above
Method in brief: as §1

[15] = tested on: HT-1080 (Other Solid Carcinomas); assay: as above
Method in brief: as §1

[16] = tested on: OAW-28 (Ovarian Carcinoma); assay: as above
Method in brief: as §1

[17] = tested on: SK-N-SH (Neuroblastoma); assay: as above
Method in brief: as §1

[18] = tested on: SNU-423 (Hepatocellular Carcinoma); assay: Bliss excess, mean over the matrix (fraction); higher = more synergy
Method in brief: as §1

[19] = tested on: LCLC-103H (Non-Small Cell Lung Carcinoma); assay: as above
Method in brief: as §1

[20] = tested on: NCI-H1341 (Small Cell Lung Carcinoma); assay: as above
Method in brief: as §1
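For Bliss excess, mean over the matrix in this document: after 72 h of two-drug dosing.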

CC1(C)CCC(CN2CCN(c3ccc(C(=O)NS(=O)(=O)c4ccc(NCC5CCOCC5)c([N+](=O)[O-])c4)c(Oc4cnc5[nH]ccc5c4)c3)CC2)=C(c2ccc(Cl)cc2)C1 [Venetoclax] + CN(C)CCCOc1ccc(-c2ccc3ncc4c(c3c2)n(C2CCOCC2)c(=O)n4C)cn1 [AZD0156] (first compound max 1 µM, 7x7, partner max 1 µM)
combination Emax [1]: 0.244
combination Emax [2]: 0.19
combination Emax [3]: 0.174
combination Emax [4]: 0.152
combination Emax [5]: 0.204
combination Emax [6]: 0.11
combination Emax [7]: 0.119
combination Emax [8]: 0.156
combination Emax [9]: 0.221
combination Emax [10]: 0.282
combination Emax [11]: 0.78
combination Emax [12]: 0.494
combination Emax [13]: 0.164
combination Emax [14]: 0.361
combination Emax [15]: 0.105
combination Emax [16]: 0.116
combination Emax [17]: 0.394
Bliss excess [18]: -0.0429
Bliss excess [19]: -0.0404
Bliss excess [20]: 0.007

Cc1cc2ncnn2cc1Nc1ncc2c(n1)n(C1CCOCC1)c(=O)n2C [AZD7648] + O=C(c1cc(Cc2n[nH]c(=O)c3ccccc23)ccc1F)N1CCN(C(=O)C2CC2)CC1 [Olaparib] (first compound max 10 µM, 7x7, partner max 10 µM)
combination Emax [1]: 0.396
combination Emax [2]: 0
combination Emax [3]: 0.0842
combination Emax [4]: 0.143
combination Emax [5]: 0.164
combination Emax [6]: 0.144
combination Emax [7]: 0.145
combination Emax [8]: 0.28
combination Emax [9]: 0.339
combination Emax [10]: 0.723
combination Emax [11]: 0.31
combination Emax [12]: 0.305
combination Emax [13]: 0.0469
combination Emax [14]: 0.433
combination Emax [15]: 0.147
combination Emax [16]: 0.188
combination Emax [17]: 0.444
Bliss excess [18]: -0.0451
Bliss excess [19]: -0.0374
Bliss excess [20]: 0.013

CCN(CCO)CCCOc1ccc2c(Nc3cc(CC(=O)Nc4cccc(F)c4)[nH]n3)ncnc2c1 [AZD2811] + C=CCn1c(=O)c2cnc(Nc3ccc(N4CCN(C)CC4)cc3)nc2n1-c1cccc(C(C)(C)O)n1 [AZD1775] (first compound max 1 µM, partner max 1 µM)
combination Emax [1]: 0.667
combination Emax [2]: 0.645
combination Emax [3]: 0.195
combination Emax [4]: 0.164
combination Emax [5]: 0.41
combination Emax [6]: 0.612
combination Emax [7]: 0.262
combination Emax [8]: 0.554
combination Emax [9]: 0.776
combination Emax [10]: 0.991
combination Emax [11]: 0.961
combination Emax [12]: 0.882
combination Emax [13]: 0.257
combination Emax [14]: 0.632
combination Emax [15]: 0.331
combination Emax [16]: 0.213
combination Emax [17]: 0.787
Bliss excess [18]: -0.01
Bliss excess [19]: 0.0066
Bliss excess [20]: 0.0747

CC1(C)CCC(CN2CCN(c3ccc(C(=O)NS(=O)(=O)c4ccc(NCC5CCOCC5)c([N+](=O)[O-])c4)c(Oc4cnc5[nH]ccc5c4)c3)CC2)=C(c2ccc(Cl)cc2)C1 [Venetoclax] + Cc1cc2ncnn2cc1Nc1ncc2c(n1)n(C1CCOCC1)c(=O)n2C [AZD7648] (first compound max 1 µM, 7x7, partner max 10 µM)
combination Emax [1]: 0.152
combination Emax [2]: 0.0827
combination Emax [3]: 0.209
combination Emax [4]: 0.18
combination Emax [5]: 0.284
combination Emax [6]: 0.157
combination Emax [7]: 0.196
combination Emax [8]: 0.26
combination Emax [9]: 0.229
combination Emax [10]: 0.274
combination Emax [11]: 0.84
combination Emax [12]: 0.401
combination Emax [13]: 0.0935
combination Emax [14]: 0.444
combination Emax [15]: 0.109
combination Emax [16]: 0.152
combination Emax [17]: 0.543
Bliss excess [18]: -0.111
Bliss excess [19]: -0.0416
Bliss excess [20]: 0.0752

Cc1cc2ncnn2cc1Nc1ncc2c(n1)n(C1CCOCC1)c(=O)n2C [AZD7648] + CCN(CCO)CCCOc1ccc2c(Nc3cc(CC(=O)Nc4cccc(F)c4)[nH]n3)ncnc2c1 [AZD2811] (first compound max 10 µM, 7x7, partner max 1 µM)
combination Emax [1]: 0.19
combination Emax [2]: 0.287
combination Emax [3]: 0.228
combination Emax [4]: 0.335
combination Emax [5]: 0.376
combination Emax [6]: 0.276
combination Emax [7]: 0.116
combination Emax [8]: 0.224
combination Emax [9]: 0.346
combination Emax [10]: 0.794
combination Emax [11]: 0.795
combination Emax [12]: 0.368
combination Emax [13]: 0.264
combination Emax [14]: 0.371
combination Emax [15]: 0.261
combination Emax [16]: 0.217
combination Emax [17]: 0.625
Bliss excess [18]: -0.0408
Bliss excess [19]: -0.026
Bliss excess [20]: 0.0568

CN(CCO)CC[C@H](CSc1ccccc1)Nc1ccc(S(=O)(=O)NC(=O)c2ccc(N3CCC([C@@H](O)c4ccccc4-c4ccc(Cl)cc4)CC3)cc2)cc1S(=O)(=O)C(F)(F)F [AZD4320] + Cc1cc2ncnn2cc1Nc1ncc2c(n1)n(C1CCOCC1)c(=O)n2C [AZD7648] (first compound max 1 µM, 7x7, partner max 10 µM)
combination Emax [1]: 0.202
combination Emax [2]: 0.0764
combination Emax [3]: 0.827
combination Emax [4]: 0.12
combination Emax [5]: 0.305
combination Emax [6]: 0.126
combination Emax [7]: 0.156
combination Emax [8]: 0.191
combination Emax [9]: 1
combination Emax [10]: 0.925
combination Emax [11]: 0.984
combination Emax [12]: 0.22
combination Emax [13]: 0.159
combination Emax [14]: 0.999
combination Emax [15]: 0.535
combination Emax [16]: 0.899
combination Emax [17]: 0.828
Bliss excess [18]: -0.0311
Bliss excess [19]: -0.0303
Bliss excess [20]: 0.0254

CCN(CCO)CCCOc1ccc2c(Nc3cc(CC(=O)Nc4cccc(F)c4)[nH]n3)ncnc2c1 [AZD2811] + O=C(c1cc(Cc2n[nH]c(=O)c3ccccc23)ccc1F)N1CCN(C(=O)C2CC2)CC1 [Olaparib] (first compound max 1 µM, 7x7, partner max 10 µM)
combination Emax [1]: 0.341
combination Emax [2]: 0.112
combination Emax [3]: 0.242
combination Emax [4]: 0.173
combination Emax [5]: 0.215
combination Emax [6]: 0.202
combination Emax [7]: 0.147
combination Emax [8]: 0.269
combination Emax [9]: 0.291
combination Emax [10]: 0.821
combination Emax [11]: 0.807
combination Emax [12]: 0.289
combination Emax [13]: 0.192
combination Emax [14]: 0.294
combination Emax [15]: 0.215
combination Emax [16]: 0.213
combination Emax [17]: 0.479
Bliss excess [18]: -0.0138
Bliss excess [19]: -0.0275
Bliss excess [20]: 0.0125
